The text below walks through data of patent publication US20100305124A1, “Acylated Aminopyridine and Aminopyridazine Insecticides” (BAYER CROPSCIENCE AG, priority 2009, published 2010).

One experiment has as its system green peach aphid (Myzus persicae). The experiment in a line: Myzus test (MYZUPE), sprayed aubergine plants. The class given is in vivo. To be noted: application rate of 100 ppm, spray on aubergine plants, read-out: effect in % (aphids killed). How it is done: Solvent: 3 parts by weight of dimethylformamide Emulsifier: 1 part by weight of polyoxyethylenealkyl phenyl ether
An appropriate preparation of active ingredient is prepared by mixing 1 part by weight of active ingredient with the stated amount of solvent and emulsifier and diluting the concentrate with water to the desired concentration.
Aubergine plants (Solanum melongena) infested by all stages of the green peach aphid (Myzus persicae) are sprayed with a preparation of active ingredient at the desired concentration.
After the desired time, the effect in % is determined; here, 100% means that all of the aphids have been killed. Conversely, 0% means that no aphids have been killed.
For `Cc1cncc(C(=O)Nc2cccnc2)c1` [I-10], the pest or weed control at 100 ppm was ≥ 80%.
Still for that read-out and setting: the same measure for `Cc1c(C(=O)Nc2cccnc2)cnn1-c1ncccc1Cl` [I-1]: ≥ 80%.

The experiment is the same for the next values; noted with them: application rate of 500 ppm, spray on aubergine plants, read-out: effect in % (aphids killed).
On to `CCN(C(=O)c1ccc(Oc2ccc(Cl)cc2)nc1)c1cccnc1` [I-161], for which the pest or weed control at 500 ppm was ≥ 80%.
Same read-out and setting: the same measure for `Cc1ccccc1Oc1ccc(C(=O)N(C)c2cccnc2)cn1` [I-96]: ≥ 80%; for `Cc1ccc(C(=O)N(C)c2cccnc2)cn1` [I-43]: ≥ 80%.
Regarding `O=C(Nc1cccnc1)c1ccc(SC(F)(F)F)cc1` [I-37], the pest or weed control at 500 ppm was ≥ 80%.
Same read-out and setting: the same measure for `COc1ccc(Oc2ccc(Oc3ccc(C(=O)N(C)c4cccnc4)cn3)cc2)cc1` [I-131]: ≥ 80%; for `CN(C(=O)c1cnc(Oc2ccc(C#N)cc2)c(Cl)c1)c1cccnc1` [I-149]: ≥ 80%.
`CN(C(=O)c1ccc(Oc2cc(Cl)cc(Cl)c2)nc1)c1cccnc1` [I-123]: the pest or weed control at 500 ppm is ≥ 80%.
Turning to `CSCc1ccc(C(=O)N(C)c2cccnc2)cc1` [I-59], the pest or weed control at 500 ppm is ≥ 80%.
As to `Cc1ccc(Oc2ccc(C(=O)Nc3cccnc3)cc2)cn1` [I-103], the pest or weed control at 500 ppm was ≥ 80%.
Take `O=C(Nc1cccnc1)c1ccc(Oc2ccc(Br)cc2)nc1` [I-84]: the pest or weed control at 500 ppm is ≥ 80%.
On the same count and under the same terms, the same measure for `O=C(Nc1cccnc1)c1ccc(Cn2cnc(C(F)(F)F)n2)cc1` [I-8]: ≥ 80%.
The same measure, in the same setting: the same measure for `Cc1ccc(C(=O)Nc2cccnc2)cn1` [I-38]: ≥ 80%; for `CS(=O)(=O)c1ccc(Oc2ccc(C(=O)Nc3cccnc3)cn2)cc1` [I-217]: ≥ 80%; for `CN(C(=O)c1ccc(Cn2nc(C(F)(F)F)cc2C(F)(F)F)nc1)c1cccnc1` [I-49]: ≥ 80%.
For the molecule `CN(C(=O)c1ccc(NC(=O)C(F)(F)F)cc1)c1cccnc1` [I-52], the pest or weed control at 500 ppm was ≥ 80%.
Turning to `CN(C)c1ccc(C(=O)Nc2cccnc2)cn1` [I-184], the pest or weed control at 500 ppm is ≥ 80%.
With `CSc1ccc(C(=O)Nc2cccnc2)cc1` [I-36], the pest or weed control at 500 ppm was ≥ 80%.
On to `Cc1ccc(Sc2ccc(C(=O)N(C)c3cccnc3)cn2)cc1` [I-105], for which the pest or weed control at 500 ppm is ≥ 80%.
In the case of `CN(C(=O)c1ccc(Oc2ccc(S(C)(=O)=O)cc2)nc1)c1cccnc1` [I-101], the pest or weed control at 500 ppm is ≥ 80%.
On the same count and under the same terms, with `Cc1nc(Sc2ccc(C(=O)Nc3cccnc3)cn2)nc(C)c1C` [I-218] the figure was ≥ 80%; with `CCCSCc1ccc(C(=O)Nc2cccnc2)cc1` [I-39], ≥ 80%.
For the molecule `CCN(C(=O)c1ccc(Oc2nc(OC)cc(OC)n2)nc1)c1cccnc1` [I-169], the pest or weed control at 500 ppm was ≥ 80%.
For `Cc1cc(C)nc(Oc2ccc(C(=O)Nc3cccnc3)cc2)n1` [I-181], the pest or weed control at 500 ppm is ≥ 80%.
Same read-out and setting: the same measure for `COc1cc(OC)nc(Sc2ccc(C(=O)N(C)c3cccnc3)cn2)n1` [I-174]: ≥ 80%.
For the molecule `CN(C(=O)c1ccc(Oc2cccc(C(F)(F)F)c2)nc1)c1cccnc1` [I-100], the pest or weed control at 500 ppm was ≥ 80%.
For `CCSCc1ccc(C(=O)Nc2cccnc2)cc1` [I-33], the pest or weed control at 500 ppm is ≥ 80%.
For `CCN(C(=O)c1ccc(Oc2ccc(C#N)cc2)nc1)c1cccnc1` [I-165], the pest or weed control at 500 ppm is ≥ 80%.
Turning to `CN(C(=O)c1ccc([N+](=O)[O-])cc1)c1cccnc1` [I-21], the pest or weed control at 500 ppm was ≥ 80%.
Regarding `COc1cc(OC)nc(Oc2ccc(C(=O)Nc3cccnc3)cc2)n1` [I-170], the pest or weed control at 500 ppm was ≥ 80%.
The same measure, in the same setting: the same measure for `CC(C)SCc1ccc(C(=O)N(C)c2cccnc2)cc1` [I-61]: ≥ 80%; for `CCN(C(=O)c1ccc(Sc2nccc(C)n2)nc1)c1cccnc1` [I-197]: ≥ 80%.
As for `CCN(C)C(=O)c1cccc(C(=O)N(C)c2cccnc2)c1` [I-74], the pest or weed control at 500 ppm is ≥ 80%.
As to `CN(C(=O)c1ccc(Sc2ncccn2)nc1)c1cccnc1` [I-136], the pest or weed control at 500 ppm was ≥ 80%.
For the molecule `O=C(Nc1cccnc1)c1ccc(Cn2ccc(C(F)(F)F)n2)nc1` [I-28], the pest or weed control at 500 ppm was ≥ 80%.
With `COc1ccc(Sc2ccc(C(=O)N(C)c3cccnc3)cn2)cc1` [I-106], the pest or weed control at 500 ppm is ≥ 80%.
Turning to `CN(C(=O)c1ccc(Cn2ccc(C(F)(F)F)n2)cc1)c1cccnc1` [I-27, N-Methyl-N-(pyridin-3-yl)-4-{[3-(trifluoromethyl)-1H-pyrazol-1-yl]methyl}benzenecarboxamide], the pest or weed control at 500 ppm was ≥ 80%.
For `CCSCc1ccc(C(=O)N(C)c2cccnc2)cc1` [I-58], the pest or weed control at 500 ppm is ≥ 80%.
With `CSc1ccc(C(=O)N(C)c2cccnc2)cn1` [I-110], the pest or weed control at 500 ppm was ≥ 80%.
As for `CN(C(=O)c1ccc(/C=N/C2CCCC2)cc1)c1cccnc1` [I-233], the pest or weed control at 500 ppm is ≥ 80%.
For `CCCNc1ccc(C(=O)Nc2cccnc2)cn1` [I-209], the pest or weed control at 500 ppm is ≥ 80%.
As to `C=CCN(C(=O)c1ccc(Cl)nc1)c1cccnc1` [I-231], the pest or weed control at 500 ppm was ≥ 80%.
Turning to `CN(C(=O)c1ccc(Cn2cnc(C(F)(F)F)n2)cc1)c1cccnc1` [I-25], the pest or weed control at 500 ppm was ≥ 80%.
Regarding `O=C(Nc1cccnc1)c1ccc(NCCN2CCOCC2)nc1` [I-223], the pest or weed control at 500 ppm is ≥ 80%.
In the case of `CCN(C)C(=O)c1cc(C(=O)Nc2cccnc2)ccc1OC` [I-76], the pest or weed control at 500 ppm is ≥ 80%.
With `CC(C)S(=O)(=O)c1ccc(Oc2ccc(C(=O)N(C)c3cccnc3)cn2)cc1` [I-130], the pest or weed control at 500 ppm was ≥ 80%.
Take `CCN(C(=O)c1ccc(Sc2nc(OC)nc(OC)n2)cc1)c1cccnc1` [I-190]: the pest or weed control at 500 ppm is ≥ 80%.
On the same count and under the same terms, the same measure for `Cc1cc(C)nc(Sc2ccc(C(=O)Nc3cccnc3)cn2)n1` [I-159]: ≥ 80%; for `Cc1nc(Sc2ccc(C(=O)N(C)c3cccnc3)cn2)nc(C)c1C` [I-138]: ≥ 80%; for `CN(C(=O)c1ccc(Oc2ccc(C(F)(F)F)cc2)nc1)c1cccnc1` [I-117]: ≥ 80%.
Take `COc1ccc(C(=O)N(C)c2cccnc2)cc1C(=O)NC(C)C` [I-79]: the pest or weed control at 500 ppm was ≥ 80%.
Still for that read-out and setting: with `CN(C(=O)c1cnc(Oc2ccc(C(F)(F)F)cc2)c(Cl)c1)c1cccnc1` [I-146] the figure was ≥ 80%; with `O=C(Nc1cccnc1)c1ccc(N2CCCCC2)nc1` [I-205], ≥ 80%; with `CCN(C(=O)c1ccc(Oc2nc(C)cc(C)n2)nc1)c1cccnc1` [I-187], ≥ 80%.
Regarding `Cc1cc(C)nc(Sc2ncc(C(=O)N(C)c3cccnc3)cc2Cl)n1` [I-152], the pest or weed control at 500 ppm was ≥ 80%.
As to `Cc1cc(C)nc(Sc2ccc(C(=O)N(Cc3ccc(C#N)cc3)c3cccnc3)cn2)n1` [I-228], the pest or weed control at 500 ppm is ≥ 80%.
The same measure, in the same setting: with `CN(C(=O)c1cccc(COc2ccc(C(F)(F)F)cc2)c1)c1cccnc1` [I-14] the figure was ≥ 80%; with `CC(C)NC(=O)c1cccc(C(=O)N(C)c2cccnc2)c1` [I-75], ≥ 80%.
For the molecule `CN(C(=O)c1ccc(Oc2ccc([N+](=O)[O-])cc2)nc1)c1cccnc1` [I-93], the pest or weed control at 500 ppm was ≥ 80%.
As for `COc1cc(OC)nc(Sc2ccc(C(=O)N(C)c3cccnc3)cc2)n1` [I-177], the pest or weed control at 500 ppm was ≥ 80%.
On the same count and under the same terms, with `CN(C(=O)c1cccc(Cn2cncn2)c1)c1cccnc1` [I-15] the figure was ≥ 80%; with `CCN(C(=O)c1ccc(SC)c(F)c1)c1cccnc1` [I-67], ≥ 80%.
The same measure, in the same setting: the same measure for `Cc1cc(C)nc(Sc2ccc(C(=O)N(C)c3ccnnc3)cn2)n1` [I-222]: ≥ 80%; for `CCCCSCc1ccc(C(=O)Nc2cccnc2)cc1` [I-40]: ≥ 80%; for `Cc1ccc(Oc2ccc(C(=O)N(C)c3cccnc3)cn2)cc1` [I-102]: ≥ 80%.
Same read-out and setting: the same measure for `COc1nc(OC)nc(Sc2ccc(C(=O)N(C)c3cccnc3)cc2)n1` [I-189]: ≥ 80%.
As for `CN(C(=O)c1ccc(Oc2cccc(Cl)c2)nc1)c1cccnc1` [I-99], the pest or weed control at 500 ppm is ≥ 80%.
For the molecule `O=C(Nc1cccnc1)c1ccc(Cn2nc(C(F)(F)F)nc2C(F)(F)F)cc1` [I-5], the pest or weed control at 500 ppm is ≥ 80%.
`C#CCN(C(=O)c1ccc(Sc2nc(C)cc(C)n2)nc1)c1cccnc1` [I-225]: the pest or weed control at 500 ppm is ≥ 80%.
On to `CN(CCC#N)C(=O)c1ccc(C(=O)Nc2cccnc2)cc1` [I-244], for which the pest or weed control at 500 ppm is ≥ 80%.
Same read-out and setting: with `CCN(C(=O)c1ccc(Sc2nc(OC)cc(OC)n2)nc1)c1cccnc1` [I-175] the figure was ≥ 80%.
Same read-out and setting: the same measure for `CCN(C(=O)c1ccc(C(=O)OC)cc1)c1cccnc1` [I-241]: ≥ 80%.
For the molecule `CN(C(=O)c1ccc(Oc2cnc(C(F)(F)F)nc2)nc1)c1cccnc1` [I-185], the pest or weed control at 500 ppm is ≥ 80%.
Turning to `CCN(C(=O)c1ccc(N(C)C(=O)C(F)(F)Cl)cc1)c1cccnc1` [I-246], the pest or weed control at 500 ppm is ≥ 80%.
For the molecule `Cc1cc(C)nc(Oc2ccc(C(=O)N(C)c3cccnc3)cn2)n1` [I-144], the pest or weed control at 500 ppm was ≥ 80%.
In the case of `CCN(C(=O)c1ccc(Oc2cccc(C(F)(F)F)c2)nc1)c1cccnc1` [I-221], the pest or weed control at 500 ppm is ≥ 80%.
As to `O=C(Nc1cccnc1)c1ccc(CSC(F)F)cc1` [I-35], the pest or weed control at 500 ppm is ≥ 80%.

The same experiment, now with this note: read-out: effect in % (aphids killed).
For the molecule `CN(C(=O)c1ccc(C(F)(F)C(F)(F)C(F)(F)F)cc1)c1cccnc1` [I-47], the pest or weed control at 500 ppm was ≥ 80%.
Take `CN(C(=O)c1ccc(N(C)C(=O)C(F)(F)C(F)(F)C(F)(F)F)cc1)c1cccnc1` [I-247]: the pest or weed control at 500 ppm was ≥ 80%.
